Experimental data from PubChem BioAssay AID1259408 (Genetic Toxicology Data Bank (GENE-TOX), 2018).
The source made the active and inactive calls. The rule behind the calls is not given here.

System: GENE-TOX genotoxicity assays, various organisms and cells
Test: GENE-TOX mutagenicity studies
[1] = Species/Cell Type: Salmonella typhimurium (one or more of the five standard strains: TA98, TA100, TA1535, TA1537, and TA1538), Assay Type: Histidine reverse gene mutation, Ames assay, Assay Code: SAL+*, Activation: With metabolic activation, Evaluation Type: Evaluation A (Pre-1980)
[2] = Species/Cell Type: Salmonella typhimurium, Assay Type: Forward and reverse gene mutation, host-mediated assay, Assay Code: HMA-, Evaluation Type: Evaluation A (Pre-1980)
[3] = Species/Cell Type: Neurospora crassa, Assay Type: Aneuploidy, chromosome aberrations, Assay Code: NEN-, Evaluation Type: Evaluation A (Pre-1980)
[4] = Species/Cell Type: Bacillus subtilis (H17 vs M45), Assay Type: Rec-assay, spot test, DNA effects (bacterial DNA repair), Assay Code: REW+, Evaluation Type: Evaluation A (Pre-1980)
[5] = Species/Cell Type: Bacillus subtilis (H17 vs M45), Assay Type: Rec-assay, spot test, DNA effects (bacterial DNA repair), Assay Code: REW-, Evaluation Type: Evaluation A (Pre-1980)
[6] = Species/Cell Type: Salmonella typhimurium (one or more of the five standard strains: TA98, TA100, TA1535, TA1537, and TA1538), Assay Type: Histidine reverse gene mutation, Ames assay, Assay Code: SALT, Evaluation Type: Evaluation A (Pre-1980)
[7] = Species/Cell Type: Human, Assay Type: Sister-chromatid exchange (SCE) in vitro, Assay Code: SC1T, Evaluation Type: Evaluation B (Post-1980)
[8] = Species/Cell Type: Rodents, Sex: Male, Assay Type: Dominant lethal test, Assay Code: DLT-, Evaluation Type: Evaluation A (Pre-1980)
[9] = Species/Cell Type: Nonhuman, Assay Type: Sister-chromatid exchange (SCE) in vitro, Assay Code: SC2+D, Dose Response: With dose response, Evaluation Type: Evaluation B (Post-1980)
[10] = Species/Cell Type: Escherichia coli WP2, Assay Type: Tryptophan reverse gene mutation, Assay Code: WP2-, Evaluation Type: Evaluation A (Pre-1980)
[11] = Species/Cell Type: Salmonella typhimurium (one or more of the five standard strains: TA98, TA100, TA1535, TA1537, and TA1538), Assay Type: Histidine reverse gene mutation, Ames assay, Assay Code: SAL+, Evaluation Type: Evaluation A (Pre-1980)

Q: With `CC(=O)Nc1ccc2c(c1)Cc1cc(O)ccc1-2` as the compound, how does the mutagenic call (Species/Cell Type: Escherichia coli polA (W3110 vs P3478), Assay Type: Rec-assay, DNA effects (bacterial DNA repair), Assay Code: RE2+, Evaluation Type: Evaluation A (Pre-1980)) read?
A: active; positive

Q: What about the mutagenic call (Species/Cell Type: Escherichia coli polA (W3119 vs P3478), Assay Type: Rec-assay, DNA effects (bacterial DNA repair), Assay Code: RE1T, Evaluation Type: Evaluation A (Pre-1980)) of the same compound?
A: no conclusion

Q: What about the mutagenic call (Species/Cell Type: Human diploid fibroblasts, Assay Type: Unscheduled DNA synthesis (UDS) in vitro, DNA effects, Assay Code: UDH-, Evaluation Type: Evaluation A (Pre-1980)) of the same compound?
A: inactive; negative

Q: And the mutagenic call (Species/Cell Type: Human, Assay Type: Sister-chromatid exchange (SCE) in vitro, Assay Code: SC1-, Evaluation Type: Evaluation B (Post-1980))?
A: inactive; negative

Q: What about the mutagenic call (Species/Cell Type: Saccharomyces cerevisiae, Assay Type: Mitotic recombination or gene conversion, Assay Code: YEH-, Evaluation Type: Evaluation A (Pre-1980)) of the same compound?
A: inactive; negative

Q: And the mutagenic call [1]?
A: active; positive

Q: What about the mutagenic call [2] of the same compound?
A: inactive; negative

Q: Which mutagenic call [3] does the source give for `Oc1c(I)cc(Cl)c2cccnc12` here?
A: inactive; negative

Q: What does the source list for `O=[Te](=O)(O)O`?
A: mutagenic call [4]: active; positive; mutagenic call [5]: inactive; negative

Q: `CCN(CC)c1ccc(C(=C2C=CC(=[N+](CC)CC)C=C2)c2ccc(S(=O)(=O)O)cc2S(=O)(=O)[O-])cc1` was tested. Which mutagenic call (Species/Cell Type: Mammalian polychromatic erythrocytes, Assay Type: Micronucleus test, chromosome aberrations, Assay Code: MNT+, Evaluation Type: Evaluation B (Post-1980)) did it give?
A: active; positive

Q: `CN(C)CCN(Cc1cccs1)c1ccccn1` was tested. Which mutagenic call (Species/Cell Type: Chinese hamster ovary (CHO) cells, Assay Type: Forward gene mutation at the HPRT locus, Assay Code: CHOT, Evaluation Type: Evaluation B (Post-1980)) did it give?
A: no conclusion

Q: And the mutagenic call (Species/Cell Type: Nonhuman, Assay Type: Sister-chromatid exchange (SCE) in vitro, Assay Code: SC2-, Evaluation Type: Evaluation B (Post-1980))?
A: inactive; negative

Q: And the mutagenic call (Species/Cell Type: Nonhuman, Assay Type: Sister-chromatid exchange (SCE) in vivo, Assay Code: SC3-, Evaluation Type: Evaluation B (Post-1980))?
A: inactive; negative

Q: Which mutagenic call [6] does the source give for `O=NN(CCCCO)CCCCO` here?
A: no conclusion

Q: How did the mutagenic call (Species/Cell Type: Drosophila melanogaster, Assay Type: Sex-linked recessive lethal gene mutation, Assay Code: SRL+, Evaluation Type: Evaluation A (Pre-1980)) turn out when `ClC/C=C/CCl` was run?
A: active; positive

Q: With `CN(C)CCCN1c2ccccc2CCc2ccccc21` as the compound, how does the mutagenic call [7] read?
A: no conclusion

Q: And the mutagenic call [8]?
A: inactive; negative

Q: `CCCCN(CC(=O)O)N=O` was tested. Which mutagenic call [6] did it give?
A: no conclusion

Q: How did the mutagenic call [4] turn out when `Cc1cc(O)c2c(c1)C(=O)C13C(=C2O)C(=O)C2C(O)C1C1C(O)C3C(=O)C3=C(O)c4c(O)cc(C)cc4C(=O)C321` (configuration not stated) was run?
A: active; positive

Q: `OCCc1ccccc1` was tested. Which mutagenic call (Species/Cell Type: Human lymphocytes, Assay Type: Sister-chromatid exchange (SCE) in vitro, Assay Code: SCLT, Evaluation Type: Evaluation B (Post-1980)) did it give?
A: no conclusion

Q: And the mutagenic call [7]?
A: no conclusion

Q: `CN(C)CCNc1ccc(NCCN(C)C)c2c1C(=O)c1c(O)ccc(O)c1C2=O` was tested. Which mutagenic call (Species/Cell Type: Nonhuman, Assay Type: Sister-chromatid exchange (SCE) in vitro, Assay Code: SC2+, Evaluation Type: Evaluation B (Post-1980)) did it give?
A: active; positive

Q: How did the call (Species/Cell Type: Nonhuman, Assay Type: In vivo carcinogenicity studies, Assay Code: CCG+, Evaluation Type: Evaluation A (Pre-1980)) turn out when `O=NN1CCC[C@H]1c1cccnc1` was run?
A: active; positive

Q: And the mutagenic call (Species/Cell Type: Rat primary hepatocytes, Assay Type: Unscheduled DNA synthesis (UDS) in vitro, DNA effects, Assay Code: UDP+, Evaluation Type: Evaluation A (Pre-1980))?
A: active; positive

Q: Which mutagenic call [9] does the source give for `OC1C=Cc2c(c3cc4ccccc4cc3c3ccccc23)[C@H]1O` (some centres not stated) here?
A: active; positive

Q: Which mutagenic call [5] does the source give for `[Cl][Al]([Cl])[Cl]` here?
A: inactive; negative

Q: And the mutagenic call (Species/Cell Type: Nonhuman bone marrow, Assay Type: Chromosome aberrations, in vivo, Assay Code: CY#+, Evaluation Type: Evaluation A (Pre-1980))?
A: active; positive

Q: What about the mutagenic call (Species/Cell Type: Syrian hamster embryo (SA7/SHE) cells, Assay Type: Cell transformation, viral enhanced, Assay Code: CT7-, Evaluation Type: Evaluation A (Pre-1980)) of the same compound?
A: inactive; negative

Q: `CC(C)(C)NCC(O)COc1cccc2c1CCC(=O)N2` (configuration not stated) was tested. Which mutagenic call [5] did it give?
A: inactive; negative

Q: And the mutagenic call [10]?
A: inactive; negative

Q: What about the mutagenic call (Species/Cell Type: Escherichia coli WP2 UVRA, Assay Type: Tryptophan reverse gene mutation, Assay Code: WPU-, Evaluation Type: Evaluation A (Pre-1980)) of the same compound?
A: inactive; negative

Q: What about the mutagenic call [2] of the same compound?
A: inactive; negative

Q: `CN[C@H]1C[C@H](O[C@H]2C[C@](O)(C(C)=O)Cc3c(O)c4c(c(O)c32)C(=O)c2c(OC)cccc2C4=O)O[C@@H](C)[C@H]1O` was tested. Which mutagenic call [1] did it give?
A: active; positive

Q: Which mutagenic call [1] does the source give for `Nc1cc2c3ccccc3ccc2c2ccccc12` here?
A: active; positive

Q: Which mutagenic call [3] does the source give for `Nc1nc2n[nH]nc2c(=O)[nH]1` here?
A: inactive; negative

Q: `CC(=O)NS(=O)(=O)c1ccc(N)cc1` was tested. Which mutagenic call (Species/Cell Type: Neurospora crassa, Assay Type: Aneuploidy, chromosome aberrations, Assay Code: NEN+, Evaluation Type: Evaluation A (Pre-1980)) did it give?
A: active; positive

Q: And the mutagenic call (Species/Cell Type: Saccharomyces cerevisiae, Assay Type: Aneuploidy, chromosome aberrations, Assay Code: YEN+, Evaluation Type: Evaluation A (Pre-1980))?
A: active; positive

Q: Which mutagenic call (Species/Cell Type: Nonhuman, Assay Type: Sister-chromatid exchange (SCE) in vitro, Assay Code: SC2-, Evaluation Type: Evaluation A (Pre-1980)) does the source give for `Cc1c(N(C)C)c(=O)n(-c2ccccc2)n1C` here?
A: inactive; negative

Q: `CCCCN(N=O)C(CCC)OC(C)=O` (configuration not stated) was tested. Which mutagenic call [11] did it give?
A: active; positive

Q: `C=CCn1c(Cl)c(CC)c(=O)n(CC)c1=O` was tested. Which mutagenic call (Species/Cell Type: Drosophila melanogaster, Assay Type: Sex-linked recessive lethal gene mutation, Assay Code: SRLT, Evaluation Type: Evaluation A (Pre-1980)) did it give?
A: no conclusion

Q: Which mutagenic call [8] does the source give for `NC[C@@H](O)CCl` here?
A: inactive; negative

Q: How did the mutagenic call (Species/Cell Type: Escherichia coli WP2, Assay Type: Tryptophan reverse gene mutation, Assay Code: WP2+, Evaluation Type: Evaluation A (Pre-1980)) turn out when `NNC(=O)NC(=O)NN` was run?
A: active; positive

Q: What does the source list for `OO`?
A: mutagenic call (Species/Cell Type: Escherichia coli polA (W3119 vs P3478), Assay Type: Rec-assay, DNA effects (bacterial DNA repair), Assay Code: RE1+, Evaluation Type: Evaluation A (Pre-1980)): active; positive; mutagenic call (Species/Cell Type: Human diploid fibroblasts, Assay Type: Unscheduled DNA synthesis (UDS) in vitro, DNA effects, Assay Code: UDH+, Evaluation Type: Evaluation A (Pre-1980)): active; positive; mutagenic call (Species/Cell Type: Human lymphocytes, Assay Type: Sister-chromatid exchange (SCE) in vitro, Assay Code: SCL+D, Dose Response: With dose response, Evaluation Type: Evaluation B (Post-1980)): active; positive; mutagenic call (Species/Cell Type: Human, Assay Type: Sister-chromatid exchange (SCE) in vitro, Assay Code: SC1+D, Dose Response: With dose response, Evaluation Type: Evaluation B (Post-1980)): active; positive; mutagenic call (Species/Cell Type: Neurospora crassa, Assay Type: Reverse gene mutation, Assay Code: NER+, Evaluation Type: Evaluation A (Pre-1980)): active; positive; mutagenic call [9]: active; positive; mutagenic call [6]: no conclusion; mutagenic call (Species/Cell Type: Schizosaccharomyces pombe, Assay Type: Reverse gene mutation, Assay Code: YEZ+, Evaluation Type: Evaluation A (Pre-1980)): active; positive; mutagenic call (Species/Cell Type: Vicia faba, Assay Type: Chromosome aberrations, Assay Code: VIC-, Evaluation Type: Evaluation A (Pre-1980)): inactive; negative

Q: `Nc1cc(N)c(N=Nc2ccc(S(=O)(=O)O)cc2)cc1N=Nc1ccc(S(=O)(=O)O)cc1` (tested in a mixture with another compound) was tested. Which mutagenic call [11] did it give?
A: active; positive

Q: What does the source list for `O=Cc1ccc([N+](=O)[O-])o1`?
A: mutagenic call [10]: inactive; negative; mutagenic call (Species/Cell Type: Saccharomyces cerevisiae, Assay Type: Mitotic recombination or gene conversion, Assay Code: YEC-, Evaluation Type: Evaluation A (Pre-1980)): inactive; negative

Q: With `OCCN(CCO)c1nc(-c2cccs2)nc2ccccc12` as the compound, how does the mutagenic call [6] read?
A: no conclusion

Q: How did the mutagenic call [6] turn out when `Cc1cc2c(c3ccc4ccccc4c13)CCCC2C` (configuration not stated) was run?
A: no conclusion
